Data set [1] in a line: Tissue distribution study in rats after oral administration. The data set is classed as in vivo. The settings on record: oral CCMLE or inclusion complex, heart, liver, spleen, lungs, kidneys, brain. The protocol: The tissue distribution study followed the same experimental grouping and dosing protocols described in Section 3.12. Thirty minutes after dosing, the rats were euthanized and their tissues (including their heart, liver, spleen, lungs, kidneys and brain) were immediately collected. Each tissue was rinsed with a 0.9% NaCl solution, gently dried with filter paper, weighed and stored at −80 °C until analysis.
For sample preparation, 0.2 g of each tissue was homogenized in 0.5 mL of a 0.9% NaCl solution using a high-throughput tissue grinder (Jingxin, Shanghai, China). Next, 300 μL of the tissue homogenate was mixed with 50 μL of a CHL solution and 850 μL of methanol, vortexed for 3 min and centrifuged at 13,000 rpm for 10 min at 4 °C. Then 10 μL of the supernatant was injected into the UPLC-QqQ-MS/MS system for analysis.

Data set [2] in a line: In vivo pharmacokinetic study in rats after oral administration (UPLC-QqQ-MS/MS of plasma). On the set-up: species or system SD rats. The settings on record: for AUC(0-inf) / AUC(0-t) / Cmax / Tmax / half-life: male, SD, rat, plasma, n = 6; for relative bioavailability / time at which peak plasma concentration (Cmax) was reached: oral; for relative bioavailability: from the inclusion complex, using CCMLE as a reference; for time at which peak plasma concentration (Cmax) was reached: post-administration (Figure 6). The protocol: Healthy male SD rats weighing 200 ± 20 g were housed in a specific pathogen-free (SPF) facility under controlled conditions (24 ± 1 °C, 50 ± 10% relative humidity) with a 12 h light/dark cycle. The animals were free to access purified water and a standard laboratory diet for a 1-week acclimatization period. After acclimatization, the rats were randomly divided into three groups (n = 6 per group): the control group (con), CCMLE group and stilbene/HP-β-CD inclusion complex group. The CCMLE group received an oral dose of 232 mg/kg CCMLE, while the stilbene/HP-β-CD inclusion complex group received 2.1 g/kg of the inclusion complex by oral gavage, with both containing the same amount of stilbenes. All animal experiments were performed in accordance with the National Institutes of Health Guide for the Care and Use of Laboratory Animals (NIH Publication No. 85-23, revised in 1996). The study protocol was approved by the Animal Care and Use Committee of Zhejiang University of Technology (approval number MGS20231227194).
Blood samples (approximately 300 μL) were collected via the retro-orbital venous plexus before dosing and at the following post-dose times of 5 min, 15 min, 30 min, 1 h, 1.5 h, 2 h, 4 h, 6 h, 8 h, 12 h and 24 h. Each sample was placed in an EDTA anticoagulation tube to prevent coagulation. The tubes were then centrifuged at 3500 rpm for 10 min. The upper layer of supernatant (plasma) was carefully collected and stored at −80 °C until further analysis.
The plasma samples stored at −80 °C were thawed at room temperature prior to processing. For each analysis, 100 μL of the plasma sample was accurately transferred into a centrifuge tube, followed by the addition of 40 μL of a chloramphenicol (CHL) solution (1 mg/mL) used as an internal standard (IS) and 260 μL methanol. The mixture was vortexed for 3 min to ensure thorough homogenisation and then centrifuged at 13,000 rpm for 10 min at 4 °C to precipitate proteins and other insoluble components. For analysis, 10 μL of the supernatant was injected into a ultra-high-performance liquid chromatography–triple-quadrupole tandem mass spectrometry (UPLC-QqQ-MS/MS) system.
The bioavailabilities of three stilbenes (LLC, CSA and MPA) in CCMLE and the stilbene/HP-β-CD inclusion complex were analyzed using a Waters Xevo TQ-S micro-mass spectrometry system (Waters, Milford, MA, USA) coupled to a Waters H-Class UPLC system. Chromatographic separation was performed on a Waters H-Class UPLC system equipped with a Welch Ultimate® UHPLC LP-C18 column (Waters, Milford, MA, USA, 2.1 × 50 mm, 1.8 μm) at 30 °C. The injection volume was 10 μL. The mobile phase consisted of ultrapure water (A) and acetonitrile (B) with a flow rate of 0.3 mL/min and an elution gradient programme as follows: 0–0.2 min, 90% A; 0.2–1.5 min, 90–5% A; 1.5–3.5 min, 5% A; and 3.5–5 min, 5–90% A.
Mass spectrometric analysis was performed on a Waters Xevo TQ-S micro system using electrospray ionization in the negative mode (ESI^−). The capillary voltage was 2.71 kV, and the ion source temperature was 150 °C. Nitrogen was used as the desolventizing gas and the cone pore gas, and argon was used as the collision gas. Data acquisition was performed in the multiple-reaction-monitoring (MRM) mode for all analytes.
The relative bioavailability of CSA, LLC and MPA in the stilbene/HP-β-CD inclusion complex was calculated using Equation (8), with CCMLE used as a reference:(8) Frel=AUCstilbenes/HP−β−CD/AUCCCMLE·DCCMLE/Dstilbenes/HP−β−CD·100% where AUCstilbenes/HP-β-CD and AUCCCMLE represent the areas under the blood concentration–time curve, and Dstilbenes/HP-β-CD and DCCMLE represent the orally administered dose (mg/kg).
DAS 2.0 software was used to calculate the pharmacokinetic parameters, including the area under the plasma concentration–time curve (AUC), maximum plasma concentration (Cmax), time to reach Cmax (tmax) and elimination half-life (t1/2), using a non-compartmental model. […]

The conditions of data set [3]: quoted without reference; cited from earlier work.
Setting [4] is: oral stilbene/HP-β-CD inclusion complex 2.1 g/kg.

On to `COc1cc(/C=C/c2ccccc2)c(C(=O)O)c(O)c1CC=C(C)C` [CSA, cajaninstilbene acid], for which the tissue-specific accumulation result in data set [1] is given as “predominately concentrated in the liver”. Also, in data set [2] (oral CCMLE 232 mg/kg), the AUC(0-inf) turned out to be 170 ± 66 ng·h/mL, the AUC(0-t) came to 120 ± 41 ng·h/mL, the concentration peaked (Cmax) at 48 ng/mL and the Tmax stood at 0.3 ± 0.1 h. This compound gave a half-life in data set [2] (oral CCMLE 232 mg/kg) of 11 ± 5.6 h. Further, in data set [2] (setting [4]), the AUC(0-inf) amounted to 470 ± 160 ng·h/mL, the AUC(0-t) worked out at 240 ± 82 ng·h/mL, the concentration peaked (Cmax) at 140 ± 60 ng/mL and the Tmax turned out to be 0.3 ± 0.1 h. The compound further had a half-life in data set [2] (setting [4]) of 13 ± 9.9 h. Besides, in data set [2], the relative bioavailability is 198% and the “time at which peak plasma concentration (Cmax) was reached” value was 15 min.

As to `COc1cc(O)cc(/C=C/c2ccccc2)c1CC=C(C)C` [LLC, longistyle C], in data set [1], the tissue-specific accumulation result is “higher concentrations in the heart and lungs”. In addition, in data set [2] (oral CCMLE 232 mg/kg), the AUC(0-inf) was determined as 10 ± 9.3 ng·h/mL, the AUC(0-t) was determined as 5.8 ± 2.9 ng·h/mL, the concentration peaked (Cmax) at 0.7 ± 0.5 ng/mL and the Tmax is 0.3 ± 0.1 h. In data set [2] (oral CCMLE 232 mg/kg), this compound gave a half-life of 14 ± 8.7 h. In data set [2] (setting [4]), the area under the curve AUC(0-inf) is 12 ± 6.7 ng·h/mL, the exposure AUC(0-t) was found to be 10 ± 6.7 ng·h/mL, the highest level (Cmax) was 4.5 ± 2 ng/mL and the Tmax worked out at 0.5 h. The half-life in data set [2] (setting [4]) is 6 h. Also, in data set [2], the relative bioavailability is 177%.

Turning to `COc1cc(O)c(C(=O)O)c(/C=C/c2ccccc2)c1` [MPA, 4-O-methylpinosylvic acid], the tissue-specific accumulation entry in data set [1] was “relatively higher levels in the liver, lungs and kidneys”. In data set [2] (oral CCMLE 232 mg/kg), the AUC(0-inf) was determined as 580 ± 170 ng·h/mL, the AUC(0-t) was determined as 560 ± 160 ng·h/mL, the Cmax came to 230 ± 60 ng/mL and the Tmax is 0.4 ± 0.3 h. This compound had a half-life in data set [2] (oral CCMLE 232 mg/kg) of 5.5 ± 1.7 h. In data set [2] (setting [4]), the AUC(0-inf) is 803 ± 140 ng·h/mL, the AUC(0-t) was determined as 740 ± 100 ng·h/mL, the Cmax worked out at 440 ± 130 ng/mL and the Tmax came out at 0.3 ± 0.1 h. In data set [2] (setting [4]), this compound gave a half-life of 9 ± 4.1 h. For the same compound, in data set [2], the relative bioavailability is 131% and the “time at which peak plasma concentration (Cmax) was reached” value was 15 min.

On to `Oc1ccc(/C=C/c2cc(O)cc(O)c2)cc1` [resveratrol], for which, in data set [3], the “pKa of phenolic hydroxyl groups” value is reported as 9.5–10.

(Values after publication PMC12195777, “Improved Bioavailability of Stilbenes from Cajanus cajan (L.) Millsp. Leaves Achieved by Hydroxypropyl-β-Cyclodextrin Inclusion: Preparation, Characterization and Pharmacokinetic Assessment” (Molecules, 2025).)
